Each structure is given as a SMILES string.

The values that follow come from ChEMBL document CHEMBL1157598, “Direct determination of the insulin-insulin receptor interface using transferred cross-saturation experiments” (J Med Chem, 2010).

Assay [1] deals with Insulin receptor (Homo sapiens) (UniProt P06213). The assay can be described thus: Displacement of [125I]insulin from insulin receptor chimera fused with Fc-region of IgG at 100 uM by scintillation proximity assay. Background: Displacement assays read how much labelled ligand stays bound in the presence of the test substance.
Assay [2] has the same target. The assay is described as follows: Displacement of [125I]insulin from insulin receptor chimera fused with Fc-region of IgG at 300 uM by scintillation proximity assay.

Sequence of Insulin receptor (Homo sapiens) (P06213 28-758 limits assumed): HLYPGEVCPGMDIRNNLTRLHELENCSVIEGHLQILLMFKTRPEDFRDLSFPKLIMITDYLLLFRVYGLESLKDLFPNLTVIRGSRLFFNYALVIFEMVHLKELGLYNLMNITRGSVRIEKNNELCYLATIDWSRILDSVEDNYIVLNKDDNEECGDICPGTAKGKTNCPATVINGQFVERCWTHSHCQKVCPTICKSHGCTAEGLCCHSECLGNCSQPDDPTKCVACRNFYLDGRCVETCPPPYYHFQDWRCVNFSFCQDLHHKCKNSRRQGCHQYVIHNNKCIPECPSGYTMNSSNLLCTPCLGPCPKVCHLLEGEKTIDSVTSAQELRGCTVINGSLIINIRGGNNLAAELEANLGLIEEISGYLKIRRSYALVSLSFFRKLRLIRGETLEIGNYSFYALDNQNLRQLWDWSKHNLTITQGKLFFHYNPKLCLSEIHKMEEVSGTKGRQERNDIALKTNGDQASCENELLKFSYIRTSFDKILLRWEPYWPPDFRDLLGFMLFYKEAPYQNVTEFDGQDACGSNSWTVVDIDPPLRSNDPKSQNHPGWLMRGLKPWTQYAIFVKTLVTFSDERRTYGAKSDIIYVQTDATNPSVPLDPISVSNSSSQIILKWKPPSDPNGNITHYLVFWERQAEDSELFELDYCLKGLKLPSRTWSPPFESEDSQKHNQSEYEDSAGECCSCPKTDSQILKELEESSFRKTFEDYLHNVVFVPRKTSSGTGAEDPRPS
Sequence of Insulin receptor (Homo sapiens) (P06213 763-1382 limits assumed): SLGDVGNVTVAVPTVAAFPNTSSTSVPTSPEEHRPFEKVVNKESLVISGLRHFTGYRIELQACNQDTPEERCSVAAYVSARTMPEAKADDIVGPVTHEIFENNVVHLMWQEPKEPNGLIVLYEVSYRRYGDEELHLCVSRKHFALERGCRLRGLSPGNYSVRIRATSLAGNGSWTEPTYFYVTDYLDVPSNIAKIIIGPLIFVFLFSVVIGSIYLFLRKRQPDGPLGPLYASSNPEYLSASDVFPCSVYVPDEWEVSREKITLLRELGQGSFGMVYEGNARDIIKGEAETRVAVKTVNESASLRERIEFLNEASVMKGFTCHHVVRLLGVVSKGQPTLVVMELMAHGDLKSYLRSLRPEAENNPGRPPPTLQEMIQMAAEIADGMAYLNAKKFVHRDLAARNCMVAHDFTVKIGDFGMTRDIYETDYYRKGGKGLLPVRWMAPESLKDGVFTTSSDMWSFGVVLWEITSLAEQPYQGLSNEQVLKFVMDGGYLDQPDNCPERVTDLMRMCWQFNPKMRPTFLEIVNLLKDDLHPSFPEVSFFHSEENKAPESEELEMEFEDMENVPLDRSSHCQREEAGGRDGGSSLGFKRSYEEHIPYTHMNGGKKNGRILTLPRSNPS

For the molecule `O=C(CSc1nnc(Nc2ccccc2F)s1)c1ccc(OC(F)F)cc1`, the results for the Activity in assay [1] and in assay [2] were 69% and 49%, respectively.
